The record followed here is US12642799B2, “Composition and method for treating COVID-19” (University of South Florida, priority 2021, dated 2026).

For test [1], the system named is SARS CoV-2 (variants) infected Calu3 cells. Type of test: cell-based.
In another test the test system is TNFα, IL-6. Type of test: cell-based.

In the case of sitagliptin monohydrate phosphate, the “inhibition of viral replication (SARS CoV2 N protein mRNA)” value in test [1] was “equally effective”. The “inhibition of inflammatory cytokine production (TNFα, IL-6 mRNA)” value with TNFα, IL-6 is “equally effective”.

Regarding `N[C@@H](CC(=O)N1CCn2c(nnc2C(F)(F)F)C1)Cc1cc(F)c(F)cc1F` [sitagliptin], in test [1], the “inhibition of viral replication (SARS CoV2 N protein mRNA)” value is “equally effective”. For the same compound, in the test on TNFα, IL-6, the “inhibition of inflammatory cytokine production (TNFα, IL-6 mRNA)” value is recorded as “equally effective”.
